# Assay results published in patent EP2605769B1, “BENZOQUINONE DERIVATIVES FOR THE TREATMENT OF MITCHONDRIAL EYE DISEASES” (Santhera Pharmaceuticals (Schweiz) AG, priority 2010, dated 2012).
# Marks after values point to notes of the source that are not given here.
# How the values were obtained:
# C57BL/6J mice [1] = test: Mouse model of intravitreal rotenone injection, histopathological analyses of retinal degeneration, first study; type: in vivo; settings: ± SEM; for Gliosis: GFAP immunostaining RFU; for Gliosis / Retinal thickness: 7 days post-injection; for Glutamine-synthetase: GS immunostaining RFU; for Glutamine-synthetase / RGC number: 1 day post-injection
# Source text: This mouse model is used to assess the therapeutic potential of compounds in eye disorders characterized by mitochondrial dysfunction such as LHON, DOA, macular degeneration, retinopathy, and complex I deficiency. It is a widely accepted in vivo model based on single-eye intravitreal injection of the mitochondrial complex I inhibitor rotenone in the adult mouse. Intravitreal injection of rotenone induces neurotoxicity through mitochondrial complex I dysfunction in the retina which is the main molecular dysfunction […]. […] Histological analysis includes quantitative measurement of the retinal thickness (whole retina and individual layers), RGC apoptosis and cell death, oxidative stress, glutamine synthetase expression, and gliosis. The non-injected eye is used as a within subject, i.e. intraindividual, control. Male wild-type C57BL/6J mice (7 weeks old, about 25 g body weight) are individually housed in Makrolon type II cages with standard bedding and free access to food and water under a regular 12-hours light-dark cycle (8 a.m. to 8 p.m.). […] The injection is performed over a period of 2 min and the needle is kept in place for an additional 3 min, after which it is gently removed. Sterile surgical glue (Histoacryl, BRAUN/Aesculap AG, Germany) is used to seal the site of injection and a sterile antimicrobial ophtalmic ointment (Neosporin, GlaxoSmithKline, UK) is applied to the injected eye to avoid any infection. […] The eye balls are removed, retinas are dissected, fixed for an additional 2 h at 4°C, incubated in PB 0.1 M and 30% sucrose overnight, frozen in optimal cutting temperature compound (O.C.T., Tissue-Tek, Miles Laboratories, Elkhart, IN, USA), sliced at 14 µm, and collected onto glass slides for immunostaining. Immunostaining is performed accordingly to conventional method using multiple primary antibodies. Fluorescent-conjugated secondary antibodies and DAPI are used for visualization under a fluorescence microscope. All procedures are performed in accordance with the Swiss regulation and under a license approved by the "Kantonales Veterinäramt Basel-Land". Results: […] Table 5 In Table 5, the histological data are expressed as % of sham (DMSO) injected control ± SEM. […] IA 400 means a pretreatment with Compound IA at 400 mg/kg, similarily IA 2000 means a pretreatment with Compound IA at 2000 mg/kg. Statistical significance relative to vehicle + rotenone group is p ≤ 0.05 (*), p ≤ 0.01 (**). n is the number of retinas per group.
# C57BL/6J mice [2] = test: Mouse model of intravitreal rotenone injection, histopathology, second study with modified less invasive injection method; type: in vivo
# Source text: This mouse model is used to assess the therapeutic potential of compounds in eye disorders characterized by mitochondrial dysfunction such as LHON, DOA, macular degeneration, retinopathy, and complex I deficiency. It is a widely accepted in vivo model based on single-eye intravitreal injection of the mitochondrial complex I inhibitor rotenone in the adult mouse. Intravitreal injection of rotenone induces neurotoxicity through mitochondrial complex I dysfunction in the retina which is the main molecular dysfunction […]. […] Histological analysis includes quantitative measurement of the retinal thickness (whole retina and individual layers), RGC apoptosis and cell death, oxidative stress, glutamine synthetase expression, and gliosis. The non-injected eye is used as a within subject, i.e. intraindividual, control. Male wild-type C57BL/6J mice (7 weeks old, about 25 g body weight) are individually housed in Makrolon type II cages with standard bedding and free access to food and water under a regular 12-hours light-dark cycle (8 a.m. to 8 p.m.). […] The injection is performed over a period of 2 min and the needle is kept in place for an additional 3 min, after which it is gently removed. Sterile surgical glue (Histoacryl, BRAUN/Aesculap AG, Germany) is used to seal the site of injection and a sterile antimicrobial ophtalmic ointment (Neosporin, GlaxoSmithKline, UK) is applied to the injected eye to avoid any infection. […] The eye balls are removed, retinas are dissected, fixed for an additional 2 h at 4°C, incubated in PB 0.1 M and 30% sucrose overnight, frozen in optimal cutting temperature compound (O.C.T., Tissue-Tek, Miles Laboratories, Elkhart, IN, USA), sliced at 14 μm, and collected onto glass slides for immunostaining. Immunostaining is performed accordingly to conventional method using multiple primary antibodies. Fluorescent-conjugated secondary antibodies and DAPI are used for visualization under a fluorescence microscope. All procedures are performed in accordance with the Swiss regulation and under a license approved by the "Kantonales Veterinäramt Basel-Land". […] A modified, less invasive injection method was used to further minimize damage caused by the injection itself. […] At 400 mg/kg Compound IA, a clear significant protection was observed (269 μm; p = 0.03), whereas at 2000 mg/kg a strong protective trend was detected (258 μm; p = 0.06). […] Table 6 In Table 6, the histological data on 7 days post-injection is expressed as % of sham (DMSO) injected control ± SEM. […] The term IA 200 defines a treatment with Compound IA at a concentration of 200 mg/kg; […], IA 400 and IA 2000: define a treatment with Compound IA at 400 mg/kg and at 2000 mg/kg, respectively. Statistical significance relative to vehicle + rotenone group is expressed as p ≤ 0.05 (*). n designates the number of retinas per group.
# [3] = 400 mg/kg pretreatment 3 weeks + rotenone
# [4] = 2000 mg/kg pretreatment 3 weeks + rotenone
# [5] = 200 mg/kg + rotenone, 7 days post-injection, ± SEM
# [6] = 400 mg/kg + rotenone, 7 days post-injection, ± SEM
# [7] = 2000 mg/kg + rotenone, 7 days post-injection, ± SEM
structure (smiles),measurement,setting,value
"COC1=C(OC)C(=O)C(CCCCCCCCCCO)=C(C)C1=O [Compound IA, Idebenone]",Gliosis,C57BL/6J mice [1]; 400 mg/kg + rotenone,112.7 ± 11.9 * (n=3) % of sham (DMSO) injected control
same,Glutamine-synthetase,C57BL/6J mice [1]; 400 mg/kg + rotenone,98.5 ± 1.9 (n=5) % of sham (DMSO) injected control
same,RGC number,C57BL/6J mice [1]; [3],94.6 ± 3.2 ** (n=3) % of sham (DMSO) injected control
same,Retinal thickness,C57BL/6J mice [1]; [3],84.3 ± 2.9 ** (n=3) % of sham (DMSO) injected control
same,Gliosis,C57BL/6J mice [1]; 2000 mg/kg + rotenone,134.7 ± 10.7* (n=3) % of sham (DMSO) injected control
same,Glutamine-synthetase,C57BL/6J mice [1]; 2000 mg/kg + rotenone,99 ± 2.9 * (n=6) % of sham (DMSO) injected control
same,RGC number,C57BL/6J mice [1]; [4],101.3 ± 11.3 (n=3) % of sham (DMSO) injected control
same,Retinal thickness,C57BL/6J mice [1]; [4],76.9 ± 10.1 (n=4) % of sham (DMSO) injected control
same,Gliosis,C57BL/6J mice [2]; [5],124.46 ± 7.37 * (n=7) % of sham (DMSO) injected control
same,RGC number,C57BL/6J mice [2]; [5],62.53 ± 9.13 (n=7) % of sham (DMSO) injected control
same,Retinal thickness,C57BL/6J mice [2]; [5],91.17 ± 5.72 (n=8) % of sham (DMSO) injected control
same,Retinal thickness,"C57BL/6J mice [2]; 200 mg/kg, 7 days after rotenone-injection, sham about 300 µm, rotenone 220 µm",272 µm
same,Gliosis,C57BL/6J mice [2]; [6],125.04 ±9.12 * (n=6) % of sham (DMSO) injected control
same,RGC number,C57BL/6J mice [2]; [6],63.68 ± 5.98 * (n=6) % of sham (DMSO) injected control
same,Retinal thickness,C57BL/6J mice [2]; [6],89.93 ± 2.16 * (n=6) % of sham (DMSO) injected control
same,Retinal thickness,"C57BL/6J mice [2]; 400 mg/kg, 7 days after rotenone-injection, sham about 300 µm, rotenone 220 µm",269 µm
same,Gliosis,C57BL/6J mice [2]; [7],129.86 ± 7.32 * (n=7) % of sham (DMSO) injected control
same,RGC number,C57BL/6J mice [2]; [7],64.44 ± 4.56 * (n=8) % of sham (DMSO) injected control
same,Retinal thickness,C57BL/6J mice [2]; [7],86.58 ± 2.51 (n=8) % of sham (DMSO) injected control
same,Retinal thickness,"C57BL/6J mice [2]; 2000 mg/kg, 7 days after rotenone-injection, sham about 300 µm, rotenone 220 µm",258 µm
